Experimental data taken from patent US6664036B1, “Homogeneous single-part color developer per color film processing and method of using same” (priority 2002, dated 2003).

Assay: Solubility of Color Developing Agents CD-2 and CD-3 free base with co-solvent
Format: physicochemical
Parameters: unit not given here
Conditions: free base form, same manner as Example 1
Experimental: The co-solvent shown in TABLE I below were tested for their ability to solubilize KODAK Color Developing Agent CD-4 in free base form, in a solution matrix similar to conventional color developing concentrates. KODAK Color Developing Agent CD-4 was prepared in free base form by neutralizing a saturated solution of KODAK Color Developing Agent CD-4 disulfate salt with a stoichiometric quantity of 45% potassium hydroxide. The resulting mixture was stirred and allowed to separate into two layers, the KODAK Color Developing Agent CD-4 free base oil being in the top layer. The top layer was then drawn off for use in the solubility test.
A solution was prepared containing approximately 90 g/l solution of the various co-solvents using a stock solution containing 233 g/l of potassium carbonate, 84.5 g/l of potassium bicarbonate and 67 g/l of potassium sulfite at pH 10.4. Free acid co-solvents were neutralized with a stoichiometric quantity of 45% potassium hydroxide before the test solution was prepared. KODAK Color Developing Agent CD-4 in free base was then added to each test solution with stirring, and the quantity was monitored by weight until precipitation occurred. Using the final volume of the saturated solution and the amount of color developing agent added, the solubility of the color developing agent was calculated.
The solubility of KODAK Color Developing Agents CD-2 and CD-3 were tested in the same manner described in Example 1 for KODAK Color Developing Agent CD-4.

[1] = co-solvent Diethylene glycol 90 g/l
[2] = co-solvent Sodium Benzoate 85-88 g/l

| SMILES | Color Developing Agent Solubility [1] | Color Developing Agent Solubility [2] |
| --- | --- | --- |
| CCN(CC)c1ccc(N)c(C)c1.Cl [CD-2, 4-(N,N-diethyl)-2-methylaniline hydrochloride] | <4 | 12 |
| CCN(CCNS(C)(=O)=O)c1ccc(N)c(C)c1.CCN(CCNS(C)(=O)=O)c1ccc(N)c(C)c1.O=S(=O)(O)O.O=S(=O)(O)O.O=S(=O)(O)O [CD-3, 4-(N-ethyl-N-methanesulfonamidoethyl)-2-methylaniline sesquisulfate] | <4 | 66 |
